According to patent publication US20090287077A1, “SYSTEM FOR DETECTING FUNCTION OF INTESTINAL BARRIER AND METHOD FOR USING THE SAME” (NATIONAL TAIWAN UNIVERSITY, priority 2008, published 2009):

Experiment: Plasma concentration of Gd-containing contrast agent after injection into jejunal pouch (MRI of plasma samples, standard curve)
Type: in vivo, rat
Conditions: for concentration of the Gd-containing contrast agent in the plasma: 0.5 ml (0.5 M) into jejunal pouch, mean±SEM
Procedure: Male Wistar rats weighed 250 g to 300 g were used in this experiment. The rats were randomly divided into 2 groups: sham-operation control group (CON) and ischemia/reperfusion group (I/R). Before the experiment, the rats were fasted overnight but allowed to drink water ad lib. The experiment was conducted in a sterile environment. The rats in the two groups were anethesized by intraperitoneal injection of ethyl urethane (1.2 g/kg), and then subjected to abdominal median incision. A jejunal pouch of 10 cm was made at 10 cm from the end of suspensory ligament of duodenum. A 1 ml syringe with a PE-10 catheter was intubated to one end of the jejunal pouch and 0.5 ml of Krebs buffer solution was slowly injected into the pouch from the syringe. The formula of Krebs buffer solution was as follows: 115 mmol/L of NaCl, 8 mmol/L of KCl, 1.25 mmol/L of Ca Cl2, 1.2 mmol/L of MgCl2, 2.0 mmol/L of KH2PO4 and 25 mmol/L of NaHCO3, with a pH of 7.33 to 7.37. […] The CON rats were subjected to abdominal median incision but not subjected to SMA closure. Thereafter, the tissue samples were taken from the rats of these 2 groups for histologic examination and analysis of bacterial translocation (as shown below). […]
In order to determine the rate of the Gd-containing contrast agent transferred from jejunal lumen into systemic circulation, a PE-50 catheter was intubated into left femoral artery before the surgical operation. […] The intensity of signal indication of each plasma sample and of each standard solution was calculated by using a determining device to circle a region of 4 mm^2 in MRI image and to calculate the intensity of signal indication in the region (mm^2). […] The concentration of the Gd-containing contrast agent in the plasma samples at each time point was calculated, using the standard curve. The flow-out rate of the Gd-containing contrast agent flowing from intestinal lumen to systemic circulation at different stages of reperfusion was calculated and expressed in mM/min.

## CNC(=O)CN(CCN(CCN(CC(=O)[O-])CC(=O)NC)CC(=O)[O-])CC(=O)[O-].[Gd+3] [Gd-containing contrast agent]
CON rats (sham operation), 15 minutes
  concentration of the Gd-containing contrast agent in the plasma: 6 ± 4 µM
I/R rats (20 min SMA closure), after 15 minutes of reperfusion
  concentration of the Gd-containing contrast agent in the plasma: 220 ± 44 µM
Stage of 0-15 minutes of reperfusion
  flow-out rate of the Gd-containing contrast agent from intestinal lumen to systemic circulation, I/R rats versus CON rats: significantly higher than that in CON rats
